The text below walks through data of US12459951B2, “Compounds that interact with RAS superfamily proteins for treatment of cancers, inflammatory diseases, rasopathies, and fibrotic disease” (SHY Therapeutics, LLC, priority 2022, dated 2025).

Read-outs that look alike come from different tables or passages of the source.

The subject of assay [1] is Smad2/Smad3 phosphorylation. In words: Phospho-Smad2/3 Inhibition Assay (western blot), Panc-1. The following applies: at 10 μM, Panc-1 pancreatic cancer cell line; starred symbols = activation. The assay is classed as cell-based, human. Put shortly:
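Western blotting of lysates (15-50 μg protein) read phosphorylation of Smad2 Ser465/467 and Smad3 Ser423/425. Before lysis, Panc-1 cells got 1 h of 10 ng/ml TGF-b1 following 3 h compound exposure at 37° C (10 μM final, or serial dilutions for IC50, 0.3% DMSO) after overnight 0.5% FBS starvation.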

The next assay relates to IL6. In words: IL-6 Quantification Assay (ELISA), LPS-stimulated RAW 264.7. The assay is classed as cell-based. Also noted: inhibition: dose or concentration left out as unconfirmed. The following applies: Mus musculus, RAW264.7; read-out: IL-6: % inh. For orientation: An ELISA detects its analyte on a solid surface through an enzyme-linked reagent.
In another assay the test system is TNF-alpha. In words: TNF-alpha Quantification Assay (ELISA), LPS-stimulated RAW 264.7. The assay is classed as cell-based. Particulars: Mus musculus, RAW264.7; at 10 μM; read-out: TNFα: % inh.
Assay [2] relates to MiaPaca-2 (expressing KRAS G12C mutant). As to the kind of experiment: Proliferation Assay (Cell Viability Assay). The assay is classed as cell-based. The following applies: Homo sapiens, MIA PaCa-2. Put shortly: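 After 2–4 days' exposure at 37 °C, 5% CO2 to a single 10 μM final concentration or a dilution series (IC50), percent proliferation inhibition was derived from CellTiter 96 Aqueous One viability readings. The medium contained 0.3% DMSO and 10% FBS. KRAS G12C MiaPaca-2 cells were plated at 2000–5000/well the day before.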

Setting [3] is: read-out: Proliferation in MiaPaca-2: IC50.

Consider `Cc1c(-c2ccn(C)n2)cn2nc(-c3nccn3C)nc(Nc3cc(C(C)C)[nH]n3)c12` [Compound 268, N-(5-Isopropyl-1H-pyrazol-3-yl)-5-methyl-2-(1-methyl-1H-imidazol-2-yl)-6-(1-methyl-1H-pyrazol-3-yl)pyrrolo[2,1-f][1,2,4]triazin-4-amine], for which, in assay [1], the “% inh of Smad2/3 phosphorylation in Panc-1” value (from here on “% inh”) is on record as “C (C = 46-75% inhibition)”. Also, the inhibition in the assay with IL6 was 75 to 100%. In addition, the inhibition at 10 µM in the assay with TNF-alpha was in the range of 25 to 49%. Moreover, in assay [2] (setting [3]), the IC50 was below 150 nM.

With `COc1cc(Nc2nc(-c3nccn3C)nn3cc(-c4ccncc4)c(C)c23)ncn1` [Compound 49, N-(6-Methoxypyrimidin-4-yl)-5-methyl-2-(1-methyl-1H-imidazol-2-yl)-6-(pyridin-4-yl)pyrrolo[2,1-f][1,2,4]triazin-4-amine], the “% inh” value in assay [1] is reported as “B (B = 26-45% inhibition)”. For the same molecule, the inhibition in the assay with IL6 was in the range of 1 to 24%. Further, the inhibition at 10 µM in the assay on TNF-alpha was 1 to 24%. The IC50 in assay [2] (setting [3]) is below 150 nM.

Consider `COc1cccc(Nc2nc(-c3nccn3C)nn3ccc(C)c23)n1` [Compound 38, N-(6-Methoxypyridin-2-yl)-5-methyl-2-(1-methyl-1H-imidazol-2-yl)pyrrolo[2,1-f][1,2,4]triazin-4-amine], for which the “% inh” value in assay [1] was 0 (0 = 0% inhibition). In addition, the inhibition in the assay with IL6 was in the range of 25 to 49%. In the assay with TNF-alpha, the inhibition at 10 µM lay within 1 to 24%. For the same molecule, in assay [2] (setting [3]), the IC50 is above 1000 nM.

As to `COc1cccc(-c2cn3nc(-c4nccn4C)nc(N[C@H]4C[C@H](OC)C4)c3c2-c2ccccc2)c1Cl` [Compound 32, 6-(2-Chloro-3-methoxyphenyl)-N-((1r,3r)-3-methoxycyclobutyl)-2-(1-methyl-1H-imidazol-2-yl)-5-phenylpyrrolo[2,1-f][1,2,4]triazin-4-amine], in assay [1], the “% inh” value was “D (D = 76-100% inhibition)”. Also, the inhibition in the assay on IL6 is 75 to 100%. Moreover, in the assay on TNF-alpha, the inhibition at 10 µM lay in the range of 75 to 100%. The IC50 in assay [2] (setting [3]) lay in the range of 150 to 500 nM.

For the molecule `COc1ccnc(Nc2nc(-c3nccn3C)nn3cc(-c4ccn(C(C)C)n4)c(C)c23)c1` [Compound 58, 6-(1-Isopropyl-1H-pyrazol-3-yl)-N-(4-methoxypyridin-2-yl)-5-methyl-2-(1-methyl-1H-imidazol-2-yl)pyrrolo[2,1-f][1,2,4]triazin-4-amine], in assay [1], the “% inh” value is “C (C = 46-75% inhibition)”. Moreover, the inhibition in the assay with IL6 lay within 25 to 49%. Moreover, the inhibition at 10 µM in the assay with TNF-alpha is 1 to 24%. The IC50 in assay [2] (MiaPaca2, pancreatic, KRas G12C, read-out: Proliferation assay IC50) was below 150 nM; in assay [2] (Proliferation assay, MiaPaca-2, read-out: MiaPaca-2 IC50 (nM) Pancreatic), 1 to 10 nM; in assay [2] (setting [3]), below 150 nM.

For the molecule `COc1ccc(Nc2nc(-c3nccn3C)nn3cc(-c4ccn(C(C)C)n4)c(C)c23)cn1` [Compound 71, 6-(1-Isopropyl-1H-pyrazol-3-yl)-N-(6-methoxypyridin-3-yl)-5-methyl-2-(1-methyl-1H-imidazol-2-yl)pyrrolo[2,1-f][1,2,4]triazin-4-amine], in assay [1], the “% inh” value is 0 (0 = 0% inhibition). The inhibition in the assay with IL6 turned out to be 0%. Moreover, the inhibition at 10 µM in the assay on TNF-alpha came out at 0%. For the same molecule, the IC50 in assay [2] (setting [3]) was above 1000 nM.

As for `COc1cc(Nc2nc(-c3nccn3C)nn3cc(-c4ccn(C)n4)c(C)c23)ncc1-n1cnc(C)c1` [Compound 244, N-(4-Methoxy-5-(4-methyl-1H-imidazol-1-yl)pyridin-2-yl)-5-methyl-2-(1-methyl-1H-imidazol-2-yl)-6-(1-methyl-1H-pyrazol-3-yl)pyrrolo[2,1-f][1,2,4]triazin-4-amine], the “% inh” value in assay [1] was “A* (A* = 1-25% activation)”. In the assay on IL6, the inhibition came to 0%. Moreover, the inhibition at 10 µM in the assay on TNF-alpha worked out at 0%. In addition, in assay [2] (setting [3]), the IC50 was below 150 nM.

For the molecule `Cc1c(-c2ccn(C(C)C)n2)cn2nc(-c3nccn3C)nc(Nc3cnccn3)c12` [Compound 62, 6-(1-Isopropyl-1H-pyrazol-3-yl)-5-methyl-2-(1-methyl-1H-imidazol-2-yl)-N-(pyrazin-2-yl)pyrrolo[2,1-f][1,2,4]triazin-4-amine], the “% inh” value in assay [1] is reported as “A* (A* = 1-25% activation)”. Also, the inhibition in the assay with IL6 is 25 to 49%. Moreover, the inhibition at 10 µM in the assay with TNF-alpha is 1 to 24%. In addition, in assay [2] (setting [3]), the IC50 is below 150 nM.

Consider `Cc1c(-c2ccn(C)n2)cn2nc(-c3nccn3C)nc(Nc3ccc(-c4ccccn4)cn3)c12` [Compound 249, N-([2,3′-Bipyridin]-6′-yl)-5-methyl-2-(1-methyl-1H-imidazol-2-yl)-6-(1-methyl-1H-pyrazol-3-yl)pyrrolo[2,1-f][1,2,4]triazin-4-amine], for which the “% inh” value in assay [1] was 0 (0 = 0% inhibition). In the assay on IL6, the inhibition lay in the range of 75 to 100%. For the same molecule, the inhibition at 10 µM in the assay with TNF-alpha fell in the range of 1 to 24%. For the same molecule, the IC50 in assay [2] (setting [3]) is below 150 nM.

For `Cc1c(-c2ccn(C(C)C)n2)cn2nc(-c3nccn3C)nc(Nc3ccn(C)n3)c12` [Compound 61, 6-(1-Isopropyl-1H-pyrazol-3-yl)-5-methyl-2-(1-methyl-1H-imidazol-2-yl)-N-(1-methyl-1H-pyrazol-3-yl)pyrrolo[2,1-f][1,2,4]triazin-4-amine], the “% inh” value in assay [1] is given as “B (B = 26-45% inhibition)”. Also, the inhibition with IL6 fell in the range of 1 to 24%. For the same molecule, the inhibition at 10 µM with TNF-alpha was in the range of 1 to 24%. Also, the IC50 in assay [2] (setting [3]) fell in the range of 510 to 1000 nM.

As to `COCCNc1nc(-c2nccn2C)nn2cc(-c3ccn(C(C)C)n3)c(C(C)C)c12` [Compound 35, 5-Isopropyl-6-(1-isopropyl-1H-pyrazol-3-yl)-N-(2-methoxyethyl)-2-(1-methyl-1H-imidazol-2-yl)pyrrolo[2,1-f][1,2,4]triazin-4-amine], in assay [1], the “% inh” value was “A (A = 1-25% inhibition)”. For the same molecule, in the assay on IL6, the inhibition lay in the range of 25 to 49%. Also, the inhibition at 10 µM with TNF-alpha is 0%. Also, the IC50 in assay [2] (setting [3]) was above 1000 nM.

As to `Cc1c(-c2ccn(C)n2)cn2nc(-c3nccn3C)nc(Nc3cc(-c4ccccn4)[nH]n3)c12` [Compound 265, 5-Methyl-2-(1-methyl-1H-imidazol-2-yl)-6-(1-methyl-1H-pyrazol-3-yl)-N-(5-(pyridin-2-yl)-1H-pyrazol-3-yl)pyrrolo[2,1-f][1,2,4]triazin-4-amine], the “% inh” value in assay [1] was “A (A = 1-25% inhibition)”. For the same molecule, the inhibition with IL6 is 75 to 100%. Also, in the assay with TNF-alpha, the inhibition at 10 µM lay within 25 to 49%. The IC50 in assay [2] (setting [3]) is below 150 nM.

Turning to `Cc1c(-c2ccn(C)n2)cn2nc(-c3nccn3C)nc(-n3[nH]c(N)cc3=O)c12` [Compound 261, 5-Amino-2-(5-methyl-2-(1-methyl-1H-imidazol-2-yl)-6-(1-methyl-1H-pyrazol-3-yl)pyrrolo[2,1-f][1,2,4]triazin-4-yl)-1,2-dihydro-3H-pyrazol-3-one], the “% inh” value in assay [1] is recorded as “B* (B* = 26-45% activation)”. The inhibition in the assay on IL6 is 50 to 74%. Also, the inhibition at 10 µM in the assay on TNF-alpha is 1 to 24%. In assay [2] (setting [3]), the IC50 is above 1000 nM.

Regarding `Cc1c(-c2ccn(C)n2)cn2nc(-c3nccn3C)nc(Nc3cc(-n4ccnc4)ccn3)c12` [Compound 245, N-(4-(1H-imidazol-1-yl)pyridin-2-yl)-5-methyl-2-(1-methyl-1H-imidazol-2-yl)-6-(1-methyl-1H-pyrazol-3-yl)pyrrolo[2,1-f][1,2,4]triazin-4-amine], the “% inh” value in assay [1] is given as “B* (B* = 26-45% activation)”. Also, the inhibition with IL6 lay in the range of 25 to 49%. For the same molecule, the inhibition at 10 µM with TNF-alpha stood at 0%. In addition, the IC50 in assay [2] (setting [3]) is below 150 nM.

On to `Cc1c(-c2ccn(C)n2)cn2nc(-c3nccn3C)nc(Nc3ccc(N4CCOCC4)cn3)c12` [Compound 247, 5-Methyl-2-(1-methyl-1H-imidazol-2-yl)-6-(1-methyl-1H-pyrazol-3-yl)-N-(5-morpholinopyridin-2-yl)pyrrolo[2,1-f][1,2,4]triazin-4-amine], for which the “% inh” value in assay [1] is recorded as “C* (C* = 46-75% activation)”. Also, the inhibition in the assay with IL6 fell in the range of 75 to 100%. Besides, the inhibition at 10 µM with TNF-alpha is 50 to 74%. In addition, the IC50 in assay [2] (setting [3]) lay in the range of 510 to 1000 nM.

As to `COc1cc(Nc2nc(-c3nccn3C)nn3cc(-c4cccnc4)c(C)c23)ncn1` [Compound 48, N-(6-Methoxypyrimidin-4-yl)-5-methyl-2-(1-methyl-1H-imidazol-2-yl)-6-(pyridin-3-yl)pyrrolo[2,1-f][1,2,4]triazin-4-amine], in assay [1], the “% inh” value was “B (B = 26-45% inhibition)”. Further, in the assay with IL6, the inhibition is 1 to 24%. Besides, the inhibition at 10 µM in the assay with TNF-alpha was in the range of 1 to 24%. Moreover, in assay [2] (setting [3]), the IC50 is below 150 nM.

For the molecule `CO[C@H]1C[C@H](Nc2nc(-c3nccn3C)nn3cc(-c4ccn(C)n4)c(C4CC4)c23)C1` [Compound 275, 5-Cyclopropyl-N-((1r,3r)-3-methoxycyclobutyl)-2-(1-methyl-1H-imidazol-2-yl)-6-(1-methyl-1H-pyrazol-3-yl)pyrrolo[2,1-f][1,2,4]triazin-4-amine], the “% inh” value in assay [1] is recorded as “B (B = 26-45% inhibition)”. Moreover, the inhibition with IL6 is 0%. The inhibition at 10 µM in the assay on TNF-alpha came out at 0%. Moreover, the IC50 in assay [2] (setting [3]) is above 1000 nM.
